What was measured:
[1] = tested on: gray mold pathogen (Botrytis cinerea); experiment: Gray mold antimicrobial test (growth inhibition rate); assay type: cell-based; parameters: growth inhibition rate, component (II) alone: concentration or dose not given beside the values
Method: (Test Example) Gray Mold Antimicrobial Test (Growth Inhibition Rate)
Conidiospores of a gray mold pathogen (Botrytis cinerea) were added to and dispersed in a yeast extract sucrose medium, and a component (I) and a component (II) dissolved in dimethyl sulfoxide at predetermined concentrations were further added and mixed thereto, and the resulting solution was dispensed onto a 96-well microplate and cultivated in the dark at 20° C. for 3 to 5 days. After the cultivation, the turbidity at a wavelength of 405 nm was measured by a microplate reader and compared with that in the untreated case to determine the growth inhibition rate (%) for the gray mold pathogen. The test was duplicately carried out. The results are shown in Tables 3 to 7 together with expected values calculated as follows.
Expected values were calculated by using Colby's equation: E=M+N−MN/100. Here, E denotes an expected value (%) of a growth inhibition rate, M denotes a growth inhibition rate (%) in using a component (I) alone, and N denotes a growth inhibition rate (%) in using a component (II) alone.
If the actually measured growth inhibition rate (%) of a composition of a component (I) and a component (II) is higher than the expected value, E, the composition of a component (I) and a component (II) is said to have exerted synergistic effect.

[2] = tested on: cucumber powdery mildew pathogen (Sphaerotheca fuliginea); experiment: Cucumber powdery mildew control test; assay type: in vivo; parameters: scale not given here
Excerpt: (Test Example) Cucumber Powdery Mildew Control Test 1) Preparation of Drug Solution for Test […] The other components (II) were each formulated into an aqueous solution or suspension having a predetermined concentration. 2) Test A mixed solution of a component (I) and a component (II) at a predetermined concentration was sprayed onto cucumber seedlings (variety: “Shimo-shirazu, creeping type”, cotyledon stage). After natural drying at room temperature, conidiospores of a cucumber powdery mildew pathogen (Sphaerotheca fuliginea) were inoculated by blushing off, and the seedlings were kept in a thermostatic room at 20° C. using a 12 hour light/dark cycle for 7 to 10 days. The states of lesion development on leaves were examined by comparing with that for the untreated case, and the control values were determined. The test was duplicately carried out. The results are shown in Tables 8 to 12 together with expected values calculated as follows. Expected values were calculated by using Colby's equation: […] Here, E denotes an expected value of a control value, M denotes a control value in using a component (I) alone, and N denotes a control value in using a component (II) alone. If the actually measured control value of a composition of a component (I) and a component (II) is higher than the expected value, E, the composition of a component (I) and a component (II) is said to have exerted synergistic effect.

[3] = Table 3, ppm: Ipflufenoquin 10, Cyflufenamid 10, Thiophamate-methyl 0.4, Iminoctadine acetate 0.08, Iminoctadine albesilate 0.08, Triflumizole 0.0032, Picarbutrazox 0.08, Prothioconazole 0.0032, Mefentrifluconazole 0.00064, Cymoxanil 10, Fludioxonil 0.016, Metyltetraprole 0.4, Florylpicoxamid 0.08, Fluxapyroxad 0.08, Fluopyram 0.4, Potassium phosphite 10, Fipronil 2, Chlorantraniliprole 0.016, Aba
[4] = Table 4, ppm: Ipflufenoquin 10, Cyflufenamid 2, Thiophamate-methyl 0.4, Iminoctadine acetate 0.08, Iminoctadine albesilate 0.4, Picarbutrazox 10, Prothioconazole 0.0032, Mefentrifluconazole 0.0006, Cymoxanil 10, Fludioxonil 0.016, Metyltetraprole 10, Fluxapyroxad 0.016, Fluopyram 0.4, Potassium phosphite 10, Fipronil 2, Chlorantraniliprole 0.016, Abamectin 0.016, Sulfoxaflor 10, Tebufenozide 0.016
[5] = Table 5, ppm: Ipflufenoquin 10, Cyflufenamid 10, Thiophamate-methyl 0.4, Iminoctadine albesilate 0.4, Picarbutrazox 0.0032, Mefentrifluconazole 0.0006, Cymoxanil 10, Captan 0.0032, Fludioxonil 0.016, Metyltetraprole 10, Florylpicoxamid 0.0001, Fluxapyroxad 0.016, Fluopyram 0.0032, Potassium phosphite 0.08, Fipronil 2, Chlorantraniliprole 0.016, Abamectin 0.4, Sulfoxaflor 0.4, Tebufenozide 10
[6] = Table 7, ppm: Ipflufenoquin 0.08, Cyflufenamid 0.08, Thiophamate-methyl 2, Iminoctadine acetate 0.0001, Iminoctadine albesilate 0.4, Triflumizole 0.4, Prothioconazole 0.0032, Mefentrifluconazole 0.08, Cymoxanil 0.08, Captan 0.08, Fludioxonil 0.08, Metyltetraprole 0.0032, Florylpicoxamid 0.0006, Fluxapyroxad 0.016, Fluopyram 0.0032, Potassium phosphite 0.016, Fipronil 2, Chlorantraniliprole 0.016
[7] = Table 8, ppm or dilution rate: Thiophanate-methyl 1.6, Triflumizole 25, Cyflufenamid 1.6, Iminoctadine acetate 0.25, Iminoctadine albesilate 1, Picarbutrazox 2000, Ipflufenoquin 1, Bacillus subtilis ×250, Pseudomonas rhodesiae ×2000, Sodium hydrogen carbonate 250, Potassium bicarbonate 250, Orange oil 4000, Linalool 4000, Thymol 100, Neem oil 2000, Prothioconazole 1.6, Mancozeb 63, Mineral oil 500
[8] = Table 9, ppm or dilution rate: Thiophanate-methyl 1.6, Triflumizole 25, Cyflufenamid 1.6, Iminoctadine acetate 0.25, Iminoctadine albesilate 1, Picarbutrazox 2000, Ipflufenoquin 1, Bacillus subtilis ×250, Pseudomonas rhodesiae ×2000, Sodium hydrogen carbonate 250, Potassium bicarbonate 250, Orange oil 1000, Linalool 4000, Thymol 100, Neem oil 2000, Prothioconazole 1.6, Mancozeb 63, Mineral oil 500
[9] = Table 10, ppm or dilution rate: Thiophanate-methyl 1.6, Triflumizole 25, Cyflufenamid 1.6, Iminoctadine acetate 0.25, Iminoctadine albesilate 1, Picarbutrazox 2000, Ipflufenoquin 1, Bacillus subtilis ×1000, Pseudomonas rhodesiae ×2000, Sodium hydrogen carbonate 250, Potassium bicarbonate 250, Orange oil 1000, Linalool 4000, Thymol 100, Neem oil 2000, Prothioconazole 1.6, Mancozeb 63, Mineral oil 5
[10] = Table 11, ppm or dilution rate: Thiophanate-methyl 1.6, Triflumizole 25, Cyflufenamid 1.6, Iminoctadine acetate 1, Iminoctadine albesilate 1, Picarbutrazox 2000, Ipflufenoquin 1, Bacillus subtilis ×1000, Pseudomonas rhodesiae ×2000, Sodium hydrogen carbonate 250, Potassium bicarbonate 250, Orange oil 1000, Linalool 4000, Thymol 100, Neem oil 2000, Prothioconazole 1.6, Mancozeb 63, Mineral oil 500
[11] = Table 12, ppm or dilution rate: Thiophanate-methyl 1.6, Triflumizole 25, Cyflufenamid 1.6, Iminoctadine acetate 0.25, Iminoctadine albesilate 1, Picarbutrazox 2000, Ipflufenoquin 1, Bacillus subtilis ×1000, Pseudomonas rhodesiae ×2000, Sodium hydrogen carbonate 1000, Potassium bicarbonate 250, Orange oil 1000, Linalool 4000, Thymol 400, Neem oil 2000, Prothioconazole 1.6, Mancozeb 63, Mineral oil
[12] = Table 6, ppm: Ipflufenoquin 10, Cyflufenamid 0.08, Thiophamate-methyl 2, Triflumizole 0.08, Picarbutrazox 0.0016, Prothioconazole 0.0006, Mefentrifluconazole 0.08, Cymoxanil 0.08, Captan 0.08, Fludioxonil 0.016, Metyltetraprole 10, Florylpicoxamid 0.0006, Fluxapyroxad 0.0032, Fluopyram 0.016, Potassium phosphite 0.016, Fipronil 10, Chlorantraniliprole 0.08, Abamectin 2, Sulfoxaflor 0.08, Tebufenoz

| SMILES | growth inhibition rate, component (II) alone [1, 3] [%] | growth inhibition rate, component (II) alone [1, 4] [%] | growth inhibition rate, component (II) alone [1, 5] [%] | growth inhibition rate, component (II) alone [1, 6] [%] | control value, component (II) alone [2, 7] | control value, component (II) alone [2, 8] | control value, component (II) alone [2, 9] | control value, component (II) alone [2, 10] | control value, component (II) alone [2, 11] | growth inhibition rate, component (II) alone [1, 12] [%] |
| --- | --- | --- | --- | --- | --- | --- | --- | --- | --- | --- |
| CCCCCCCCCCCCc1ccc(S(=O)(=O)O)cc1.CCCCCCCCCCCCc1ccc(S(=O)(=O)O)cc1.CCCCCCCCCCCCc1ccc(S(=O)(=O)O)cc1.NC(N)=NCCCCCCCCNCCCCCCCCN=C(N)N [Iminoctadine albesilate] | 6 | 81 | 81 | 81 | 50 | 67 | 50 | 67 | 17 | – |
| Cc1nc2c(F)c(F)ccc2cc1Oc1cccc(F)c1C(C)(C)O [Ipflufenoquin] | 4 | 4 | 4 | 0 | 27 | 27 | 27 | 27 | 27 | 4 |
| Cn1nnnc1/C(=N\OCc1cccc(NC(=O)OC(C)(C)C)n1)c1ccccc1 [Picarbutrazox] | 0 | 12 | 1 | – | 50 | 50 | 50 | 50 | 50 | 12 |
